Where two headings read alike, the source gives them in different places.
Tests used:
[1] = system: P. gingivalis-induced periodontitis; settings: for overall effect on tissue destruction and inflammatory cell infiltrate: local administration, three dosages; for linear distance from the epithelium to the alveolar crest border, ratio ligated/non-ligated sites (FIG. 6A): tip, middle and base of the crest
Protocol: In total, 21 New Zealand White rabbits (male, 3.5-4.0 kg each) were used in the experiments presented herein. Three different doses of Cimetidine (0.1, 1.0 and 10 μg/mL) have been prepared in paucilamellar liposomes (NOVASOME®). The animals were distributed as follows: Group A: Ligature alone (2 rabbits); Group B: Ligature+P. gingivalis (4 rabbits); Group C: Ligature+P. gingivalis+liposome (NOVASOME®) alone; Group D: Ligature+P. gingivalis+NOVASOME® preparation comprising 0.1 μg/mL of Cimetidine (4 rabbits); Group E: Ligature+P. gingivalis+NOVASOME® preparation comprising 1.0 μg/mL of Cimetidine (4 rabbits); and Group F: Ligature+P. gingivalis+NOVASOME® preparation comprising 10 μg/mL of Cimetidine (4 rabbits). All animals were purchased from Pine Acre Farms (Berthoud, Co.). The weight of the animals was strictly controlled and all animals weighed between 3.5-4.0 kg at the time of the initial experimentation. The animals were kept in individual cages, received water ad libitum, and were fed with specialized food (chow) for at least 5 days for acclimatization by experienced and licensed laboratory technicians at the Laboratory Animal Science Center at BUMC (BUMC LASC).
Ligature placement was performed under general anesthesia using ketamine (40 mg/kg) and xylazine (5 mg/kg) injections. […] Animals in group A received ligature only while animals in groups B, C, D, E, and F received P. gingivalis in addition to ligature placement.
P. gingivalis (strain A74376) was grown as previously described. Briefly, bacteria were cultured on agar plates containing trypticase soy agar supplemented with 0.5% (w/v) yeast extract, 5% defibrinated sheep red blood cells, […], and 1 μg/mL vitamin K. Plates were incubated for 3 days at 37° C. in jars anaerobically maintained through palladium catalyzed hydrogen/carbon dioxide envelopes (GasPak Plus, BD Microbiology Systems, Sparks, Md.). Colonies were randomly selected and anaerobically cultured overnight at 37° C. in Schaedler's broth supplemented with vitamin K and hemin. Bacteria numbers were spectrophotometrically determined at 600 nm and 10^9 CFU (0.8 OD) were mixed with carboxymethylcellulose to form a thick slurry, which was applied topically to the ligated teeth. The sutures were checked at every appointment, and lost or loose sutures were replaced.
Topical application was performed in animals of Groups D, E, and F every other day for 6 weeks under inhalation anesthesia using isoflurane (4.0 MAC/2.0 MAC). In these groups, Cimetidine was applied at three different doses. Cimetidine preparations were delivered in liposomes (NOVASOME®) that served as a vehicle for the H2 receptor antagonist. In order to see if liposome application alone would have any effect on the outcome, animals in Group C received liposomes without Cimetidine (i.e., NOVASOME® alone) in addition to ligature placement and P. gingivalis.
For histological analysis, the other half of the mandible was immersed in a volume of immunocal (Decal Corporation, Tallman, N.Y.) equal to at least 10 times the size of the section; the solution was replaced every 24 hours for 72 hours. Decalcification was assessed and confirmed by serial radiographs, which were taken every other day during two weeks.
The tissue was kept in this solution for 2-3 minutes, rinsed again in flowing deionized water for at least 3 minutes and kept in formalin for at least 24 hours before embedding in paraffin. Thin sections (5 μm) were cut and sections were conventionally stained with hematoxylin and eosin (H&E) to identify the cellular composition of the inflammatory infiltrates, and one hundred seventy (170) 5 μm-sections were stained with tartrate-resistant acid phosphatase (TRAP) to detect osteoclastic activity.
The data obtained by direct measurements during morphologic assessment and by histomorphometric measurements was used in multiple statistical analyses.

[2] = system: P. gingivalis and ligature-induced experimental periodontitis
[3] = system: P. gingivalis-induced periodontitis; settings: three doses; p<0.05
[4] = system: immunized normal cells; settings: in vitro; optimum enhancement at lower dosage (10 μg) on first day; cited from earlier work
[5] = system: CD8 (cytotoxic/suppressor) and CD4 (helper/inducer) lymphocytes; settings: 800 mg daily for 7 days; cited from earlier work
[6] = AIDS patients; cited from earlier work
[7] = system: H2 receptor; settings: via H2 receptor; cited from earlier work
[8] = topical application to the oral cavity; cited from earlier work
[9] = system: neutrophils; settings: cited from earlier work
[10] = system: lymphocyte; settings: cited from earlier work

With `CN/C(=N/CCSCc1nc[nH]c1C)NC#N` [Cimetidine] as the compound, how does the “overall effect on tissue destruction and inflammatory cell infiltrate” value [1] read?
Its value is “prevent bone loss, inflammatory cell infiltration, and connective tissue destruction”.

And the “overall effect on tissue destruction and inflammatory cell infiltrate” value ([1]; listed as cimetidine)?
The value was “inhibits P. gingivalis-elicited leukocyte migration toward the site of infection”.

What about the “total, ligatured and ratio of ligatured/non-ligatured areas of the alveolar crest (FIG. 6B)” value ([1]; three doses) of the same compound?
The value was “no significant differences between the cimetidine groups”.

And the “linear distance from the epithelium to the alveolar crest border, ratio ligated/non-ligated sites (FIG. 6A)” value ([1]; three doses)?
The value was “significantly increased (p<0.05) distances compared to the Cimetidine-treated groups”.

And the “linear distance from the epithelium to the alveolar crest border, ratio ligated/non-ligated sites (FIG. 6A)” value ([1]; three doses, listed as cimetidine)?
The value was “almost similar, insignificant (p>0.05) mean ratio values”.

What about the “bone loss and inflammatory changes, H&E stained sections (FIG. 4)” value ([1]; topical 0.1, 1.0 and 10 μg/mL, Groups D, E, F) of the same compound?
Its value is “prevent both bone loss and inflammatory changes”.

What about the “preventive effect on bone loss, quantitative analysis of defleshed bone specimens (FIG. 2)” value ([2]; all three doses vs liposome (NOVASOME) placebo, p<0.05, ANOVA) of the same compound?
The value was “statistically significant”.

What about the “gingival inflammation and bone destruction (macroscopic, FIG. 1)” value ([2]; topical, in NOVASOME liposomes, 0.1, 1.0 and 10 μg/mL, every other day for 6 weeks, Groups D, E, F) of the same compound?
Its value is “prevented the gingival inflammation and bone destruction in a significant and comparable way with no apparent dose-dependent effect”.

What about the “percentage of bone loss as calculated by Bjorn technique (FIG. 3 lower panel)” value [3] of the same compound?
Its value is “prevents the destructive effects of P. gingivalis-induced periodontitis”.

And the “primary humoral antibody response” value [4]?
Its value is “markedly influence”.

And the “CD4 (helper/inducer) lymphocytes” value [5]?
Its value is “corresponding increase”.

What about the “CD8 (cytotoxic/suppressor) lymphocytes” value [5] of the same compound?
Its value is “decrease”.

And the “clinical symptoms of disease” value [6]?
Its value is “significant improvement effect”.

What about the “histamine-mediated increase in IL-α induced IL-6 synthesis” value [7] of the same compound?
The value was “completely reverse”.

What about the “resolution of intra- and peri-oral warts” value [8] of the same compound?
The value was “complete resolution”.

And the “superoxide (O2·-) and hydrogen peroxide (H2O2) production of neutrophils” value [9]?
Its value is “reduces”.

And the “immunomodulating effect among H2 receptor antagonists (cimetidine, ranitidine, famotidine)” value [10]?
Its value is “strongest immunomodulating effect”.

Which “primary humoral antibody response” value [4] does the source give for `C/N=C(\S)NCCSCc1[nH]cnc1C` [metiamide] here?
Its value is “markedly influence”.

From patent US20130108688A1, “Delivery of H2 Antagonists” (Trustees of Boston University, priority 2004, published 2013)
